According to ChEMBL document CHEMBL1201862, “PubChem BioAssay data set” (2004):
Active and inactive are the calls of the source.

Key:
[1] = molecular target: T1, Sentrin-specific protease 7 (Homo sapiens, UniProt Q9BQF6); assay type: functional;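 further: Luminescence-based dose-response confirmation of ultra-high-throughput screening hits, measuring inhibition of SENP7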
T1 sequence (Q9BQF6 whole entry): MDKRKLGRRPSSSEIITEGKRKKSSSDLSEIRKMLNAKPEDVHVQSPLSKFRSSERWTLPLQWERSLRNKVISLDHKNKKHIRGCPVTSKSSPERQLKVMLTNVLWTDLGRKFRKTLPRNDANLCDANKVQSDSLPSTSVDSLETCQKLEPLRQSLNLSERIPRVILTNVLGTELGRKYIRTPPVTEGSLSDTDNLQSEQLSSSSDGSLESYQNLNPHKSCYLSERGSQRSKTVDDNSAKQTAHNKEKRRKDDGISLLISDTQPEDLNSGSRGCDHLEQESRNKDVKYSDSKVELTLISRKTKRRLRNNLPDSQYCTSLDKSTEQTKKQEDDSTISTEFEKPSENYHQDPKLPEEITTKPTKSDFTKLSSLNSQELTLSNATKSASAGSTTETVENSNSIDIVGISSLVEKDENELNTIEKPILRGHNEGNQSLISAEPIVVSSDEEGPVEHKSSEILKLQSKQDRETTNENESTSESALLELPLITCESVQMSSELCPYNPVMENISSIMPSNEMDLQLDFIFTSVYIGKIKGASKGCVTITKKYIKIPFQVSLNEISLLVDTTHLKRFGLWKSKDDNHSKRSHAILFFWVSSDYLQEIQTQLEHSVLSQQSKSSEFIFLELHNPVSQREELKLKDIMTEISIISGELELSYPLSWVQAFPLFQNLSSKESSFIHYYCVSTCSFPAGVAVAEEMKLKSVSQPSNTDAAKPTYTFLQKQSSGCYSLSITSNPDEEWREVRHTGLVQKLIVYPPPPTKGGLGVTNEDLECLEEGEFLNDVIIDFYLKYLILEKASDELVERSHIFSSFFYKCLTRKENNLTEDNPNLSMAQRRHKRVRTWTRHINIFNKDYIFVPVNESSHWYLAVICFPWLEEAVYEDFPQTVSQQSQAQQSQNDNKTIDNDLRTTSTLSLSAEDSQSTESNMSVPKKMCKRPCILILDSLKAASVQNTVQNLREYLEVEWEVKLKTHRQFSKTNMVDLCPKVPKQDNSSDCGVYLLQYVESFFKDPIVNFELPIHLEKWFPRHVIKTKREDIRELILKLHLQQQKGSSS

[2] = molecular target: T2, Caspase-3 (Homo sapiens, UniProt P42574); assay type: functional;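 further: Dose-response selectivity test against caspase-3 for candidate inhibitors of sentrin-specific proteases (SENPs)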
T2 sequence (P42574 whole entry): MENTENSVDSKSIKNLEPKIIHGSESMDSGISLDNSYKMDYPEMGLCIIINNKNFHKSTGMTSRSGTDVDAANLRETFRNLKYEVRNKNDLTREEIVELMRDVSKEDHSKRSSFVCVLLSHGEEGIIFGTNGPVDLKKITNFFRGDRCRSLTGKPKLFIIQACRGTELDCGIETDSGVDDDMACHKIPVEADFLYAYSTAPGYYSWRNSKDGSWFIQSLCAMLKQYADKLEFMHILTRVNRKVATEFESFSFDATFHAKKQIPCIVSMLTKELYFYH

[3] = molecular target: T3, Sentrin-specific protease 8 (Homo sapiens, UniProt Q96LD8); assay type: functional
T3 sequence (Q96LD8 whole entry): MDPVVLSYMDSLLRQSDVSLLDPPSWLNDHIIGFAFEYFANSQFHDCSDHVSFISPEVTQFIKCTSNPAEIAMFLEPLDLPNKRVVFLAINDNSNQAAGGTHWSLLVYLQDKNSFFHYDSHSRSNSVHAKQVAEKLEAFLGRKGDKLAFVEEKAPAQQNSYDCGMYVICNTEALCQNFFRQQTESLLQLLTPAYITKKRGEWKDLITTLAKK

[4] = molecular target: T3, Sentrin-specific protease 8; assay type: functional; remark: listed apart in the source
[5] = molecular target: T3, Sentrin-specific protease 8; assay type: functional; remark: listed apart in the source
[6] = molecular target: Acetyl-CoA acetyltransferase/HMG-CoA reductase (Enterococcus faecalis, UniProt Q9FD70); assay: inhibitors of E. faecalis class II HMGR, confirmation, biochemical, Enterococcus faecalis (AID 1233); assay type: functional
[7] = molecular target: Induced myeloid leukemia cell differentiation protein Mcl-1 (Homo sapiens, UniProt Q07820); assay type: functional
Chain of Induced myeloid leukemia cell differentiation protein Mcl-1 (Q07820 whole entry): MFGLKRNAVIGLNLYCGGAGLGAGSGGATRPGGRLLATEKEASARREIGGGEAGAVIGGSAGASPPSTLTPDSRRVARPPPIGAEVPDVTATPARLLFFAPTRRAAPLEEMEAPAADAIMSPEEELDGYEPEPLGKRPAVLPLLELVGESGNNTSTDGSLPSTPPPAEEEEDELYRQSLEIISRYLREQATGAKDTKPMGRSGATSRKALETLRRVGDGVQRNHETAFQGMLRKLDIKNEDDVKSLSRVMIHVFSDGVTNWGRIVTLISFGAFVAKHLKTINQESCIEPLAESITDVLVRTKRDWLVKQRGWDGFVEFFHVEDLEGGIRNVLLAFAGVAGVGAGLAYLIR

[8] = test system: Vero; assay: Vero cell cytotoxicity, cytotoxicity control for flavivirus capping enzyme inhibitors (AID 588742); assay type: functional; details: Chlorocebus sabaeus
[9] = test system: INS1; assay: beta cell apoptosis inhibitors, cytokine rescue, dose response, luminescence, retest (AID 449756); assay type: functional, cell-based; details: Rattus norvegicus;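 further: cell death triggered by IL-1 beta plus TNF-alpha plus IFN-gamma mixture; protective hits raise ATP signal compared with cytokine alone wells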
[10] = test system: A-375; assay: MITF: Counter assay: A375 proliferation Measured in Cell-Based System Using Plate Reader - 2084-03_Inhibitor_Dose_DryPowder_Activity. [Related pubchem assays (depositor defined):AID488944]; assay type: functional; details: Homo sapiens

CC(C)=CCC1=C(OCC(=O)O)C(=O)c2ccccc2C1=O
active: IC50 [1] 3.97 µM | IC50 [2] 15 µM | IC50 [3] 3.91 µM

Cc1[nH][nH]c(=O)c1C(c1c(C)[nH][nH]c1=O)c1cn(Cc2ccccc2Cl)c2ccccc12
active: IC50 [4] 4.8 µM | IC50 [5] 4.89 µM | IC50 [6] 91 µM

Cc1cccc(NC2=C(NC(=O)c3ccccc3)C(=O)c3ccccc3C2=O)c1
active: IC50 [7] 2.86 µM | CC50 [8] > 40 µM | AC50 [9] 7.52 µM | AC50 [10] 34 µM
